Where two headings read alike, the source gives them in different places.
What was measured:
[1] = tested on: rice; assay: Test B flooded paddy test; format: in vivo, Oryza sativa; details: Oryza sativa, 336 h, 1000 g ai/ha, visual rating, scale 0 to 100 (0 no effect, 100 complete control), 13 to 15 days, read-out: Rice plant response rating
How it was run: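 Postemergence plants were sprayed with formulated test chemicals at 2 to 18 cm height (1- to 4-leaf stage); paddy species were grown to the 2-leaf stage. After 13 to 15 days in a greenhouse, injury was rated visually against untreated controls on a 0–100 scale (0 = no effect, 100 = complete control).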

[2] = tested on: barnyardgrass; assay: Test B flooded paddy test; format: in vivo, Echinochloa crus-galli; details: Echinochloa crus-galli, 336 h, 1000 g ai/ha, visual rating, scale 0 to 100 (0 no effect, 100 complete control), 13 to 15 days, read-out: Barnyardgrass plant response rating
How it was run: (§1)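 Visual ratings, 0 (no effect) to 100 (complete control), made versus controls after 13–15 d greenhouse. Paddy plants treated at 2-leaf stage; postemergence plants at 1- to 4-leaf stage, 2–18 cm tall.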

[3] = tested on: blackgrass; assay: Test B postemergence herbicide test; format: in vivo, Alopecurus myosuroides; details: Postemergence, 500 g ai/ha; visual rating after 13 to 15 days, scale 0 (no effect) to 100 (complete control)
How it was run: as §1

[4] = tested on: giant foxtail; assay: Test B pre-/postemergence herbicide test; format: in vivo, Setaria faberi; details: Setaria faberi, 336 h; for pest or weed control at 500 g/ha: 500 g ai/ha; for pest or weed control at 125 g/ha: 125 g ai/ha
How it was run: (§2)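 Response was scored visually 13 to 15 days after treatment against untreated greenhouse controls, 0 meaning no effect and 100 complete control. Formulations (solvent mixture plus surfactant) went onto soil after planting, onto foliage of 1- to 4-leaf plants, and onto 2-leaf plants in a flooded paddy set including rice and barnyardgrass.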

[5] = tested on: pigweed; assay: Test B pre-/postemergence herbicide test; format: in vivo, Amaranthus retroflexus; details: Amaranthus retroflexus, 336 h; for pest or weed control at 500 g/ha: 500 g ai/ha; for pest or weed control at 125 g/ha: 125 g ai/ha
How it was run: as §2

[6] = tested on: Surinam grass; assay: Test B pre-/postemergence herbicide test; format: in vivo, Urochloa decumbens; details: Urochloa decumbens; for pest or weed control at 500 g/ha: 500 g ai/ha; for pest or weed control at 125 g/ha: 125 g ai/ha
How it was run: as §2

[7] = tested on: cocklebur; assay: Test B pre-/postemergence herbicide test; format: in vivo, Xanthium strumarium; details: Xanthium strumarium; for pest or weed control at 500 g/ha: 500 g ai/ha; for pest or weed control at 125 g/ha: 125 g ai/ha
How it was run: (§3)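 Visual rating, 0 (no effect) to 100 (complete control), versus untreated controls after 13–15 d in greenhouse. Pre- and postemergence applications (postemergence plants 2–18 cm, 1–4 leaves); flooded paddy arm at 2-leaf stage. Compounds in non-phytotoxic solvent plus surfactant.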

[8] = tested on: wheat; assay: Test B postemergence herbicide test; format: in vivo, Triticum aestivum; details: scale 0 (no effect) to 100 (complete control)
How it was run: (§4)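 After treating 2-leaf paddy plants or 2–18 cm postemergence plants (1 to 4 leaves) with formulated chemical, researchers kept them in a greenhouse for 13–15 days. Effects were judged visually versus controls: 0 indicates none, 100 total control.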

[9] = tested on: lambsquarters; assay: Test B pre-/postemergence herbicide test; format: in vivo, Chenopodium album; details: Chenopodium album, 336 h; for pest or weed control at 500 g/ha: 500 g ai/ha; for pest or weed control at 125 g/ha: 125 g ai/ha
How it was run: as §2

[10] = tested on: corn; assay: Test B pre-/postemergence herbicide test; format: in vivo, Zea mays; details: Zea mays
How it was run: as §2

[11] = tested on: wild oat; assay: Test B postemergence herbicide test; format: in vivo, Avena fatua; details: scale 0 (no effect) to 100 (complete control)
How it was run: as §4

[12] = tested on: barnyardgrass; assay: Test B pre-/postemergence herbicide test; format: in vivo, Echinochloa crus-galli; details: Echinochloa crus-galli; for pest or weed control at 500 g/ha: 500 g ai/ha; for pest or weed control at 125 g/ha: 125 g ai/ha
How it was run: as §3

[13] = tested on: ducksalad; assay: Test B flooded paddy test; format: in vivo, Heteranthera limosa; details: Heteranthera limosa, 336 h, 1000 g ai/ha, visual rating, scale 0 to 100 (0 no effect, 100 complete control), 13 to 15 days, read-out: Ducksalad plant response rating
How it was run: as §1

[14] = tested on: large crabgrass; assay: Test B pre-/postemergence herbicide test; format: in vivo, Digitaria sanguinalis; details: Digitaria sanguinalis; for pest or weed control at 500 g/ha: 500 g ai/ha; for pest or weed control at 125 g/ha: 125 g ai/ha
How it was run: as §2

[15] = tested on: small flower umbrella sedge; assay: Test B flooded paddy test; format: in vivo, Cyperus difformis; details: Cyperus difformis, 336 h, 1000 g ai/ha, visual rating, scale 0 to 100 (0 no effect, 100 complete control), 13 to 15 days, read-out: Sedge, Umbrella plant response rating
How it was run: as §1

[16] = tested on: morningglory; assay: Test B pre-/postemergence herbicide test; format: in vivo, Ipomoea coccinea; details: Ipomoea, 336 h; for pest or weed control at 500 g/ha: 500 g ai/ha; for pest or weed control at 125 g/ha: 125 g ai/ha
How it was run: as §3

[17] = Postemergence, 500 g ai/ha, visual rating after 13 to 15 days

CCn1nc(C(C)(C)C)cc1C(=O)Nc1cccc2c1CN(C)C2=O [Compound 55, N-(2,3-dihydro-2-methyl-1-oxo-1H-isoindol-4-yl)-3-(1,1-dimethylethyl)-1-ethyl-1H-pyrazole-5-carboxamide]
70%: plant injury at 1000 g/ha [1] | pest or weed control at 500 g/ha ([9]; post-emergence, Postemergence, visual rating after 13 to 15 days, scale 0 (no effect) to 100 (complete control), read-out: Plant response rating, Lambsquarters) | pest or weed control at 125 g/ha ([9]; post-emergence, postemergence, visual rating, scale 0 (no effect) to 100 (complete control), read-out: Lambsquarters plant response rating) | pest or weed control at 125 g/ha ([9]; pre-emergence, preemergence, 0 to 100 scale, 0 is no effect, 100 is complete control, read-out: Plant response rating, Lambsquarters)
20: Plant response rating, Oat, Wild [11, 17]
100%: pest or weed control at 500 g/ha ([4]; pre-emergence, Preemergence, scale 0 to 100, read-out: Foxtail, Giant plant response rating) | pest or weed control at 500 g/ha ([5]; pre-emergence, Preemergence, scale 0 to 100, read-out: Pigweed plant response rating) | pest or weed control at 500 g/ha ([9]; pre-emergence, Preemergence, scale 0 to 100, read-out: Lambsquarters plant response rating) | pest or weed control at 500 g/ha ([12]; pre-emergence, Preemergence, scale 0 to 100, read-out: Barnyardgrass plant response rating) | pest or weed control at 500 g/ha ([14]; pre-emergence, Preemergence, scale 0 to 100, read-out: Crabgrass, Large plant response rating)
50%: pest or weed control at 125 g/ha ([6]; pre-emergence, preemergence, 0 to 100 scale, 0 is no effect, 100 is complete control, read-out: Plant response rating, Surinam Grass)
80%: pest or weed control at 125 g/ha ([5]; pre-emergence, preemergence, 0 to 100 scale, 0 is no effect, 100 is complete control, read-out: Plant response rating, Pigweed) | pest or weed control at 500 g/ha ([6]; pre-emergence, Preemergence, scale 0 to 100, read-out: Surinam Grass plant response rating) | pest or weed control at 125 g/ha ([12]; pre-emergence, preemergence, 0 to 100 scale, 0 is no effect, 100 is complete control, read-out: Plant response rating, Barnyardgrass) | pest or weed control at 1000 g/ha [13] | pest or weed control at 1000 g/ha [15]
20%: plant injury at 125 g/ha ([10]; post-emergence, postemergence, 125 g ai/ha, visual rating, scale 0 (no effect) to 100 (complete control), read-out: Corn plant response rating) | plant injury at 500 g/ha ([10]; pre-emergence, Preemergence, 500 g ai/ha, scale 0 to 100, read-out: Corn plant response rating)
10: Plant response rating, Blackgrass [3] | Plant response rating, Wheat [8, 17]
0%: pest or weed control at 125 g/ha ([4]; post-emergence, postemergence, visual rating, scale 0 (no effect) to 100 (complete control), read-out: Foxtail, Giant plant response rating) | pest or weed control at 125 g/ha ([7]; pre-emergence, preemergence, 0 to 100 scale, 0 is no effect, 100 is complete control, read-out: Plant response rating, Cocklebur) | Corn plant response rating (crop injury, 0 = no effect, 100 = complete kill) at 125 g/ha ([10]; pre-emergence, preemergence, 125 g ai/ha, 0 to 100 scale, 0 is no effect, 100 is complete control) | pest or weed control at 125 g/ha ([16]; pre-emergence, preemergence, 0 to 100 scale, 0 is no effect, 100 is complete control, read-out: Plant response rating, Morningglory)
40%: pest or weed control at 500 g/ha ([5]; post-emergence, Postemergence, visual rating after 13 to 15 days, scale 0 (no effect) to 100 (complete control), read-out: Plant response rating, Pigweed) | pest or weed control at 500 g/ha ([7]; post-emergence, Postemergence, visual rating after 13 to 15 days, scale 0 (no effect) to 100 (complete control), read-out: Plant response rating, Cocklebur)
10%: pest or weed control at 500 g/ha ([4]; post-emergence, Postemergence, visual rating after 13 to 15 days, scale 0 (no effect) to 100 (complete control), read-out: Plant response rating, Foxtail, Giant) | pest or weed control at 125 g/ha ([5]; post-emergence, postemergence, visual rating, scale 0 (no effect) to 100 (complete control), read-out: Pigweed plant response rating) | pest or weed control at 500 g/ha ([6]; post-emergence, Postemergence, visual rating after 13 to 15 days, scale 0 (no effect) to 100 (complete control), read-out: Plant response rating, Surinam Grass) | pest or weed control at 125 g/ha ([6]; post-emergence, postemergence, visual rating, scale 0 (no effect) to 100 (complete control), read-out: Surinam Grass plant response rating) | pest or weed control at 125 g/ha ([7]; post-emergence, postemergence, visual rating, scale 0 (no effect) to 100 (complete control), read-out: Cocklebur plant response rating) | pest or weed control at 500 g/ha ([7]; pre-emergence, Preemergence, scale 0 to 100, read-out: Cocklebur plant response rating) | plant injury at 125 g/ha ([8]; Triticum aestivum, post-emergence, 336 h, postemergence, 125 g ai/ha, visual rating, read-out: Wheat plant response rating) | pest or weed control at 125 g/ha ([11]; Avena fatua, post-emergence, 336 h, postemergence, 125 g ai/ha, visual rating, read-out: Oat, Wild plant response rating) | pest or weed control at 500 g/ha ([12]; post-emergence, Postemergence, visual rating after 13 to 15 days, scale 0 (no effect) to 100 (complete control), read-out: Plant response rating, Barnyardgrass) | pest or weed control at 125 g/ha ([12]; post-emergence, postemergence, visual rating, scale 0 (no effect) to 100 (complete control), read-out: Barnyardgrass plant response rating) | pest or weed control at 500 g/ha ([14]; post-emergence, Postemergence, visual rating after 13 to 15 days, scale 0 (no effect) to 100 (complete control), read-out: Plant response rating, Crabgrass, Large) | pest or weed control at 125 g/ha ([14]; post-emergence, postemergence, visual rating, scale 0 (no effect) to 100 (complete control), read-out: Crabgrass, Large plant response rating) | pest or weed control at 500 g/ha ([16]; post-emergence, Postemergence, visual rating after 13 to 15 days, scale 0 (no effect) to 100 (complete control), read-out: Plant response rating, Morningglory) | pest or weed control at 125 g/ha ([16]; post-emergence, postemergence, visual rating, scale 0 (no effect) to 100 (complete control), read-out: Morningglory plant response rating) | pest or weed control at 500 g/ha ([16]; pre-emergence, Preemergence, scale 0 to 100, read-out: Morningglory plant response rating)
60%: pest or weed control at 125 g/ha ([4]; pre-emergence, preemergence, 0 to 100 scale, 0 is no effect, 100 is complete control, read-out: Plant response rating, Foxtail, Giant)
90%: pest or weed control at 1000 g/ha [2] | pest or weed control at 125 g/ha ([14]; pre-emergence, preemergence, 0 to 100 scale, 0 is no effect, 100 is complete control, read-out: Plant response rating, Crabgrass, Large)
30%: Corn plant response rating (crop injury, 0 = no effect, 100 = complete kill) at 500 g/ha ([10]; post-emergence, Postemergence, 500 g ai/ha, visual rating after 13 to 15 days, scale 0 (no effect) to 100 (complete control))
